Measurements published in US11046672B2, “Indolinones compounds and their use in the treatment of fibrotic diseases” (RESPIVERT LIMITED, priority 2015, dated 2021).
Read-outs that look alike come from different tables or passages of the source. One block for each compound: values may come before it.

Legend:
PAMPA permeability assay = format: in vitro ADME; conditions: PAMPA; for recovery at 5 hr, 10 μM: pH 7, PAMPA, donor and acceptor compartments; for Papp at 5 h, 10 μM: pH 7, pH 7, 10 μM
MRC5 cells = assay: Cell viability assay in MRC5 cells (MTT)
PDGFRβ = PDGFRβ (Homo sapiens (Human), UniProt P09619); assay: PDGF-BB induced phosphorylation of PDGFRβ in fibroblasts (MRC5 cells, HTRF); format: cell-based; conditions: MRC5 cells; n = 1 unless otherwise indicated; read-out: PDGFBB-induced PDGFRβ phosphorylation in MRC5 cells (IC50)
Chain of PDGFRβ (P09619 33-1106): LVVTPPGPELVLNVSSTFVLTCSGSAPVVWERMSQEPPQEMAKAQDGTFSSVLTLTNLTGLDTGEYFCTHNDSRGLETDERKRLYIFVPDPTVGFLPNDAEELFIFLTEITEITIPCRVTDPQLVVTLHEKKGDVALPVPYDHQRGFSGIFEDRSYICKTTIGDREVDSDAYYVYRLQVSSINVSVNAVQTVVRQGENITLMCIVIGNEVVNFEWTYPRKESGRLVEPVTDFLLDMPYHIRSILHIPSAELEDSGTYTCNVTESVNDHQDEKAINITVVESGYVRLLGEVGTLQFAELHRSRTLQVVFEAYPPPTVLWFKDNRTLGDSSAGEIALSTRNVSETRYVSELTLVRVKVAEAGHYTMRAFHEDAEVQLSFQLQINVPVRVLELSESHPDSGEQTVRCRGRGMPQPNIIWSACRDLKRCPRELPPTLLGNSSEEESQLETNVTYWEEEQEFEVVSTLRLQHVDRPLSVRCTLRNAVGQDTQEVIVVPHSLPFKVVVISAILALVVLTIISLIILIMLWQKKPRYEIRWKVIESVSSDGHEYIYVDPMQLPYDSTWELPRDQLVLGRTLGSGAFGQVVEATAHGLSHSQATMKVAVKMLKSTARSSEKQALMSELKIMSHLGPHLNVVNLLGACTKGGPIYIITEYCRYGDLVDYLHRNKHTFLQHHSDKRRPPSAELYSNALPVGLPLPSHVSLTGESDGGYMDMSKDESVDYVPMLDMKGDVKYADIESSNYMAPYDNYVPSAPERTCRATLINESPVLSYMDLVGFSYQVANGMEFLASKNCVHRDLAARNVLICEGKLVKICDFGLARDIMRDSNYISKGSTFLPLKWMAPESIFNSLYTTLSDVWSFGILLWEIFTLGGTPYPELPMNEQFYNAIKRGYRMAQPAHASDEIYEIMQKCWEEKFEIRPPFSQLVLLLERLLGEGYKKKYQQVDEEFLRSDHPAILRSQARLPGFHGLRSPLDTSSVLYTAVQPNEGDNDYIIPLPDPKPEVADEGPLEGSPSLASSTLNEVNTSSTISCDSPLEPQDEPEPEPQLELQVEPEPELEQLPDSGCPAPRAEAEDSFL

[1] = Pharmacokinetic measurements in mice (intravenous and intra-nasal dosing); format: in vivo; conditions: mouse; for concentration at 0.1 h / concentration at 1.5 h / concentration at 24 h: lung, read-out: lung concentration (nM) at time (h)
[2] = Pharmacokinetic measurements in rats (intravenous and intra-tracheal dosing); format: in vivo; conditions: rat

recovery at 5 hr, 10 μM (PAMPA permeability assay): 40.2% | Papp at 5 h, 10 μM (PAMPA permeability assay): 0.0156 ×10⁻⁶ cm/s
SMILES: COC(=O)c1cc2c(cc1C)/C(=C(/Nc1ccc(C(=O)NOCCN(C)C)cc1)c1ccccc1)C(=O)N2 [Example 26]
Cell viability at 100 nM (%) (MRC5 cells): 111.8% | Cell viability at 300 nM (%) (MRC5 cells): 111.4% | Cell viability at 1000 nM (%) (MRC5 cells): 88%

recovery at 5 hr, 10 μM (PAMPA permeability assay): 69% | Papp at 5 h, 10 μM (PAMPA permeability assay): 0.00407 ×10⁻⁶ cm/s
SMILES: COC(=O)c1cc2c(cc1C)/C(=C(/Nc1ccc(C(=O)NOCCN3CCN(C)CC3)c(C)c1)c1ccccc1)C(=O)N2 [Example 28]
Cell viability at 100 nM (%) (MRC5 cells): 110.2% | Cell viability at 300 nM (%) (MRC5 cells): 117% | Cell viability at 1000 nM (%) (MRC5 cells): 104.8%

recovery at 5 hr, 10 μM (PAMPA permeability assay): 67.4% | Papp at 5 h, 10 μM (PAMPA permeability assay): 0.22 ×10⁻⁶ cm/s
SMILES: COC(=O)c1cc2c(cc1C)/C(=C(/Nc1ccc(S(=O)(=O)NOCCN(C)C)cc1)c1ccccc1)C(=O)N2 [Example 48]
Cell viability at 100 nM (%) (MRC5 cells): 132.6% | Cell viability at 300 nM (%) (MRC5 cells): 121% | Cell viability at 1000 nM (%) (MRC5 cells): 103.5%

recovery at 5 hr, 10 μM (PAMPA permeability assay): 59.1% | Papp at 5 h, 10 μM (PAMPA permeability assay): 0.154 ×10⁻⁶ cm/s
SMILES: COC(=O)c1cc2c(cc1C)/C(=C(/Nc1ccc(C(=O)NOCCCN3CCC(OC)CC3)cc1)c1ccccc1)C(=O)N2 [Example 55]
Cell viability at 100 nM (%) (MRC5 cells): 106.7% | Cell viability at 300 nM (%) (MRC5 cells): 111.1% | Cell viability at 1000 nM (%) (MRC5 cells): 92.3%

recovery at 5 hr, 10 μM (PAMPA permeability assay): 72.8% | Papp at 5 h, 10 μM (PAMPA permeability assay): 0.00628 ×10⁻⁶ cm/s
SMILES: COC(=O)c1cc2c(cc1C)/C(=C(/Nc1ccc(C(=O)N(C)OCCN3CCN[C@@H](C)C3)cc1)c1ccccc1)C(=O)N2 [Example 62]
Cell viability at 100 nM (%) (MRC5 cells): 80.7% | Cell viability at 300 nM (%) (MRC5 cells): 73.8% | Cell viability at 1000 nM (%) (MRC5 cells): −0.2%

SMILES: COC(=O)c1cc2c(cc1C)/C(=C(/Nc1ccc(C(=O)N(C)OCCN3CCN[C@H](C)C3)cc1)c1ccccc1)C(=O)N2 [Example 65]
Cell viability at 100 nM (%) (MRC5 cells): 118.6% | Cell viability at 300 nM (%) (MRC5 cells): 110.3% | Cell viability at 1000 nM (%) (MRC5 cells): 70.5%

IC50 (PDGFRβ): 0.0165 µM
SMILES: CCN(OCCN1CCNCC1)C(=O)c1ccc(N/C(=C2\C(=O)Nc3cc(C(=O)OC)c(C)cc32)c2ccccc2)cc1 [Example 68]

IC50 (PDGFRβ): 0.0143 µM
SMILES: COC(=O)c1cc2c(cc1C)/C(=C(/Nc1ccc(C(=O)N(OCCN3CCNCC3)C(C)C)cc1)c1ccccc1)C(=O)N2 [Example 69]
Cell viability at 100 nM (%) (MRC5 cells): 92.5% | Cell viability at 300 nM (%) (MRC5 cells): 93.1% | Cell viability at 1000 nM (%) (MRC5 cells): 74.0%

IC50 (PDGFRβ): 0.00998 µM
SMILES: COC(=O)c1cc2c(cc1C)/C(=C(/Nc1ccc(C(=O)NOCCN3CCNC(=O)C3)cc1)c1ccccc1)C(=O)N2 [Example 70]
Cell viability at 100 nM (%) (MRC5 cells): 91.7% | Cell viability at 300 nM (%) (MRC5 cells): 99.7% | Cell viability at 1000 nM (%) (MRC5 cells): 94.0%

IC50 (PDGFRβ): 0.0232 µM
SMILES: CNC(=O)CN1CCN(CCON(C)C(=O)c2ccc(N/C(=C3\C(=O)Nc4cc(C(=O)OC)ccc43)c3ccccc3)cc2)CC1 [Example 71]

IC50 (PDGFRβ): 0.0367 µM
SMILES: CNC(=O)CN1CCN(CCONC(=O)c2ccc(N/C(=C3\C(=O)Nc4cc(C(=O)OC)ccc43)c3ccccc3)cc2)CC1 [Example 72]

SMILES: CNC(=O)CN1CCN(CCONC(=O)c2ccc(N/C(=C3\C(=O)Nc4cc(C(=O)OC)c(C)cc43)c3ccccc3)cc2)CC1 [Example 73]
Cell viability at 100 nM (%) (MRC5 cells): 82.9% | Cell viability at 300 nM (%) (MRC5 cells): 104% | Cell viability at 1000 nM (%) (MRC5 cells): 96.8%

SMILES: COC(=O)c1ccc2c(c1)NC(=O)/C2=C(\Nc1ccc(N(C)C(=O)CN2CCN(C)CC2)cc1)c1ccccc1 [Nintedanib, reference compound]
Cell viability at 100 nM (%) (MRC5 cells): 104.6% | Cell viability at 300 nM (%) (MRC5 cells): 105.6% | Cell viability at 1000 nM (%) (MRC5 cells): 92.7% | concentration at 0.1 h ([1]; male, C57BL/6J, iv, i.v. dosing, 0.1 h, mean): 2380 nM | concentration at 1.5 h ([1]; male, C57BL/6J, iv, i.v. dosing, 1.5 h, mean): 1340 nM | concentration at 24 h ([1]; male, C57BL/6J, iv, i.v. dosing, mean): 10 nM | concentration at 0.1 h ([1]; male, C57BL/6J, other: intra-nasal, i.n. dosing, 0.1 h, mean): 2760 nM | concentration at 1.5 h ([1]; male, C57BL/6J, other: intra-nasal, i.n. dosing, 1.5 h, mean): 804 nM | concentration at 24 h ([1]; male, C57BL/6J, other: intra-nasal, i.n. dosing, mean): 15 nM | clearance ([1]; male, C57BL/6J, whole blood, iv): 81 mL/min/kg | MRT ([1]; male, C57BL/6J, whole blood, iv, i.v. dosing, mean): 2 h | Vd ([1]; male, C57BL/6J, whole blood, iv, i.v. dosing, mean, read-out: Vss): 10 L/kg | half-life ([1]; male, C57BL/6J, whole blood, iv, i.v. dosing, mean, read-out: t½ (converted)): 2 h | BAL % administered dose at time (h) ([1]; i.n. dosing, 0.1 h): 0.5% | BAL % administered dose at time (h) ([1]; i.n. dosing, 1.5 h): 0.1% | BAL % administered dose at time (h) ([1]; i.v. dosing, 0.1 h): 0.3% | BAL % administered dose at time (h) ([1]; i.v. dosing, 1.5 h): 0.03% | i.t. BAV (%) ([2]; i.t. dosing (i.t. dose 0.1-0.5 per compound)): 43% | BAL % administered dose at time (h) ([2]; i.t. dosing, 0.1 h): 2% | BAL % administered dose at time (h) ([2]; i.t. dosing, 1.5 h): 1% | BAL % administered dose at time (h) ([2]; i.t. dosing, 24 h): 0.1% | BAL % administered dose at time (h) ([2]; i.v. dosing, 0.1 h): 0.06% | BAL % administered dose at time (h) ([2]; i.v. dosing, 1.5 h): 0.03% | BAL % administered dose at time (h) ([2]; i.v. dosing, 24 h): BQL
